In brackets after ≈: the same amount, converted by molar mass.
How the values were obtained:
[1] = Metabolic stability in human liver microsomes (HLM); conditions: human
Method: Metabolic stability in HLM was measured as described in J Comput Aided Mol Des 2015, 29, 795.

[2] = molecular target: human Fibroblast activation protein alpha (hFAP) (Homo sapiens (Human), UniProt Q12884); experiment: hFAP inhibition assay (tight binders); type: biochemical; conditions: Ala-Pro-AMC 20 μM, n = 1 or geometric mean n = 2-6; further: hFAP 2.4 pM
Method: The plates were read on a PHERAstar® reader with excitation 340 nm and emission 460 nm. Data were analyzed in Genedata Screener®. IC50 values were determined by plotting % inhibition versus log compound concentration and using a one site dose response model.

[3] = molecular target: FAP (Homo sapiens (Human), UniProt Q12884); experiment: hFAP inhibition assay; type: biochemical; conditions: hFAP […], Ala-Pro-AMC 20 μM; n = 1 or geometric mean n = 2-3
Procedure, shortened: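 Compounds (10-point, 3-fold dilutions from 50 μM top) were preincubated 15 min at rt in the dark with 0.48 nM hFAP in pH 7.4 Tris/NaCl/Chaps buffer. Reaction was started with substrate (40 μM solution) and ran 30 min at rt. Read by fluorescence (340/460 nm); IC50 from one-site fit.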

[4] = molecular target: hFAP (M39-A757) (Homo sapiens (Human), UniProt Q12884); experiment: hFAP binding assay (surface plasmon resonance); conditions: SPR, 20° C.; for hFAP Binding assay k(off) / hFAP Binding assay k(on): single cycle kinetics; for Kd: n = 1 or geometric mean n = 2-4
[5] = Kinetic solubility; conditions: kinetic from dmso stock
Method: Kinetic solubility was measured as described in Comput Aided Mol Des 2015, 29, 795.

[6] = Caco-2 cell permeability; conditions: human
Method: Caco-2 cell permeability was measured as described in Mol Pharm 2017, 14, 1601.

[7] = Metabolic stability in rat hepatocytes (rHep); conditions: n = 1 or geometric mean of n = 2-3
[8] = molecular target: Prolyl endopeptidase, Prolyl Oligopeptidase (hPREP) (Homo sapiens (Human), UniProt P48147); experiment: hPrep inhibition assay; type: biochemical; conditions: hPREP 0.6 nM, Z-Gly-Pro-amino-methylcoumarin 50 μM; read-out: PREP IC50
Procedure, shortened: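 Fluorogenic read-out (340 nm excitation, 460 nm emission) after 20 min at rt, using 50 μM final Z-Gly-Pro-aminomethylcoumarin and 0.6 nM final enzyme, following 15 min compound preincubation. Buffer pH 7.5 with glutathione and Triton X-100. IC50 via one-site model on % inhibition vs log concentration.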

[9] = HLM CLint, n = 1 or average of n = 2-3
[10] = Solubility, kinetic solubility, n = 1 or average of n = 2-3

Prolyl endopeptidase, Prolyl Oligopeptidase (hPREP), sequence (P48147 whole entry): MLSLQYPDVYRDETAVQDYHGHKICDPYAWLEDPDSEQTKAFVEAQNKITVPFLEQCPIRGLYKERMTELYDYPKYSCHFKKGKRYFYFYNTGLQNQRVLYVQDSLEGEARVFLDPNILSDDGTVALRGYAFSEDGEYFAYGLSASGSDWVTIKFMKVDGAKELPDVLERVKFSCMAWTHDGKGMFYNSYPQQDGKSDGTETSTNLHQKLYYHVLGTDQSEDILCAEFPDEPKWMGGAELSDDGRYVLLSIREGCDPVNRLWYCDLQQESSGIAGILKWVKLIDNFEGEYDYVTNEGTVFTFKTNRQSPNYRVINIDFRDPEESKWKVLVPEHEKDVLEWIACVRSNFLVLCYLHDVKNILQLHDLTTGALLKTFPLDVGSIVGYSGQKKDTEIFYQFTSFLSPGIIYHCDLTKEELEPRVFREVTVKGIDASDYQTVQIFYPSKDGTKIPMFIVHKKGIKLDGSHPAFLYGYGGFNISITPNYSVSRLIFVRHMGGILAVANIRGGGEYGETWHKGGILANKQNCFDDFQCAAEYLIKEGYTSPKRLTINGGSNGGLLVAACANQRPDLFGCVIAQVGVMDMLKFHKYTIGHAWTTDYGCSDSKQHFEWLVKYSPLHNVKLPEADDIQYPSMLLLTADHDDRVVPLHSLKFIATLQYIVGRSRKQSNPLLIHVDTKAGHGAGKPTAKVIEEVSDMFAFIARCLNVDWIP
human Fibroblast activation protein alpha (hFAP), sequence (Q12884 38-760): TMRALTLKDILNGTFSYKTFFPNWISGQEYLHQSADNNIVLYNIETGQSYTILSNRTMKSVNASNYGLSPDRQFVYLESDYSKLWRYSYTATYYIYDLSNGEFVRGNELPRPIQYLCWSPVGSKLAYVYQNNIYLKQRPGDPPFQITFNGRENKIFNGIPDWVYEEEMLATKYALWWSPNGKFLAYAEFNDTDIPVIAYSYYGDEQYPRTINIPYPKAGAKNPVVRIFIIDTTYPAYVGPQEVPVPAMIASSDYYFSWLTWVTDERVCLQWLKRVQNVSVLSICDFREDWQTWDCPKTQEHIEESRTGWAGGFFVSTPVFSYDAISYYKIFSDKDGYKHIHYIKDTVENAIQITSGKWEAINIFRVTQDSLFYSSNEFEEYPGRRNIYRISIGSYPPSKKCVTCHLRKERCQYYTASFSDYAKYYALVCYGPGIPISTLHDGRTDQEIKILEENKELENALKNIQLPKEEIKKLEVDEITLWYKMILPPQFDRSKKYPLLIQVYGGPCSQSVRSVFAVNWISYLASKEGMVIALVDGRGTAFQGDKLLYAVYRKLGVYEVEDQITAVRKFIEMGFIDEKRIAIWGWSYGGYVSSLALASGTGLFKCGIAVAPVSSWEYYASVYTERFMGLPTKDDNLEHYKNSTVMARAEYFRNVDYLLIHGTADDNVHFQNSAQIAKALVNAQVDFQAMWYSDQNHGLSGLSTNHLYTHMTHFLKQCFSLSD
FAP, sequence (Q12884 38-760): as above
hFAP (M39-A757), sequence (Q12884 39-757): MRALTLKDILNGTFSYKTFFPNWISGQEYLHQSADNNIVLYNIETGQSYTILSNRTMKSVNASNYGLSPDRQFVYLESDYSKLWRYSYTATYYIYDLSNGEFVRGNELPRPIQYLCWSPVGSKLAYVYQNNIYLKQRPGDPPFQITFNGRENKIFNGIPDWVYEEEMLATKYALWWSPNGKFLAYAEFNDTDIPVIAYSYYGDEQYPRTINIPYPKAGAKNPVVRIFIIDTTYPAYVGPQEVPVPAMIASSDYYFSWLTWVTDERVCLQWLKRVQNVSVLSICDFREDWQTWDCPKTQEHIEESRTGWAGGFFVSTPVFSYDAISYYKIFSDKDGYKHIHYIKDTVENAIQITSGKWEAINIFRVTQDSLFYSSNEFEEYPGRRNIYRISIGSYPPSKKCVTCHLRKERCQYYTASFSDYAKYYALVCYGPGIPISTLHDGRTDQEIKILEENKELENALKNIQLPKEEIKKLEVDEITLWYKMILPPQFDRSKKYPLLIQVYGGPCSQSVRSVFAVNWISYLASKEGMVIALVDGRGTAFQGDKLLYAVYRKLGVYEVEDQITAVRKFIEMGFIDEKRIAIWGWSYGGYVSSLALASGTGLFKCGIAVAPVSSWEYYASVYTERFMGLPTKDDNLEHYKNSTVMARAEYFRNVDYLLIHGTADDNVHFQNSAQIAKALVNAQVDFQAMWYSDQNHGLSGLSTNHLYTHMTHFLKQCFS

SMILES | microsomal CLint [1, 9] [µL/min/mg] | IC50 [2] [nM] | IC50 [3] [nM] | hFAP Binding assay k(off) [4] [s⁻¹] | hFAP Binding assay k(on) [4] [M⁻¹ s⁻¹] | Kd [4] [nM] | solubility [5, 10] [µM] | Papp A→B [6] [×10⁻⁶ cm/s] | Papp B→A [6] [×10⁻⁶ cm/s] | efflux ratio [6] | rHep CLint [7] [μL/min/1E6] | IC50 [8] [nM] | microsomal CLint [1] [µL/min/mg] | solubility [5] [µM]
N#C[C@@H]1CSCN1C(=O)CNC(=O)c1ccnc2ccc(-c3ccnc(F)c3)cc12 [Example 124, (R)—N-(2-(4-Cyanothiazolidin-3-yl)-2-oxoethyl)-6-(2-fluoropyridin-4-yl)quinoline-4-carboxamide] | 12 | 0.055 | 0.24 | 0.00028 | 3000000 | 0.094 | 38 (≈ 16 µg/mL) | 0.65 | 39 | 59 | 14 | 220 | – | –
Cc1nc(C)c(-c2ccc3nccc(C(=O)NCC(=O)N4CSC[C@H]4C#N)c3c2)o1 [Example 215, (R)—N-(2-(4-Cyanothiazolidin-3-yl)-2-oxoethyl)-6-(2,4-dimethyloxazol-5-yl)quinoline-4-carboxamide] | 8 | 0.12 | 0.41 | 0.00017 | 1800000 | 0.095 | 350 (≈ 148 µg/mL) | 0.48 | 29 | 59 | 3.9 | 250 | – | –
N#C[C@@H]1CSCN1C(=O)CNC(=O)c1ccnc2ccc(N3CCC(F)(F)CC3)cc12 [Example 35, (R)—N-(2-(4-Cyanothiazolidin-3-yl)-2-oxoethyl)-6-(4,4-difluoropiperidin-1-yl)quinoline-4-carboxamide] | 63 | 0.17 | 0.47 | 0.00010 | 900000 | 0.1 | 600 (≈ 267 µg/mL) | – | – | – | 64 | 1700 | – | –
N#C[C@@H]1CSCN1C(=O)CNC(=O)c1ccnc2ccc(N3CC4CCCC4C3)cc12 (stereo partly drawn) [Example 53, N-(2-((R)-4-Cyanothiazolidin-3-yl)-2-oxoethyl)-6-(hexahydrocyclopenta[c]pyrrol-2(1H)-yl)quinoline-4-carboxamide] | 120 | 0.18 | 0.27 | 0.000050 | 680000 | 0.074 | 2.6 (≈ 1.13 µg/mL) | – | – | – | 71 | 170 | – | –
CC1(C)CCCN1c1ccc2nccc(C(=O)NCC(=O)N3CSC[C@H]3C#N)c2c1 [Example 57, (R)—N-(2-(4-Cyanothiazolidin-3-yl)-2-oxoethyl)-6-(2,2-dimethylpyrrolidin-1-yl)quinoline-4-carboxamide] | > 300 | 0.098 | 0.26 | 0.00018 | 8000000 | 0.022 | 150 (≈ 63.5 µg/mL) | – | – | – | >300 | 160 | – | –
N#C[C@@H]1CSCN1C(=O)CNC(=O)c1ccnc2ccc(N3CCC[C@H]3C(F)(F)F)cc12 [Example 56, N-(2-((R)-4-Cyanothiazolidin-3-yl)-2-oxoethyl)-6-((S)-2-(trifluoromethyl)-pyrrolidin-1-yl)quinoline-4-carboxamide] | > 300 | 0.19 | 0.44 | 0.00011 | 540000 | 0.14 | 5.9 (≈ 2.73 µg/mL) | – | – | – | 160 | 220 | – | –
C[C@H]1CCN(c2ccc3nccc(C(=O)NCC(=O)N4CSC[C@H]4C#N)c3c2)C1 [Example 54, N-(2-((R)-4-Cyanothiazolidin-3-yl)-2-oxoethyl)-6-((S)-3-methylpyrrolidin-1-yl)quinoline-4-carboxamide] | 57 | 0.062 | 0.22 | 0.00023 | 6200000 | 0.045 | 13 (≈ 5.32 µg/mL) | – | – | – | 49 | 300 | – | –
N#C[C@@H]1CSCN1C(=O)CNC(=O)c1ccnc2ccc(N3CCCC(F)(F)C3)cc12 [Example 36, (R)—N-(2-(4-Cyanothiazolidin-3-yl)-2-oxoethyl)-6-(3,3-difluoropiperidin-1-yl)quinoline-4-carboxamide] | 48 | 0.084 | 0.24 | 0.000090 | 3000000 | 0.053 | < 98 | – | – | – | 19 | 400 | – | –
N#C[C@@H]1CSCN1C(=O)CNC(=O)c1ccnc2ccc(N3CCOCC34CCC4)cc12 [Example 104, (R)—N-(2-(4-cyanothiazolidin-3-yl)-2-oxoethyl)-6-(8-oxa-5-azaspiro[3.5]nonan-5-yl)quinoline-4-carboxamide] | – | 0.081 | 0.21 | 0.000061 | 3000000 | 0.02 | – | – | – | – | 28 | 650 | 130 | 930 (≈ 420 µg/mL)
N#C[C@@H]1CSCN1C(=O)CNC(=O)c1ccnc2ccc(N3CCCC4(CC4)C3)cc12 [Example 46, (R)—N-(2-(4-Cyanothiazolidin-3-yl)-2-oxoethyl)-6-(5-azaspiro[2.5]octan-5-yl)quinoline-4-carboxamide] | – | 0.082 | 0.29 | 0.000062 | 3000000 | 0.02 | – | – | – | – | 72 | 110 | 190 | 190 (≈ 82.8 µg/mL)
Cc1cccc(C2CN(c3ccc4nccc(C(=O)NCC(=O)N5CSC[C@H]5C#N)c4c3)C2)c1 [Example 186, (R)—N-(2-(4-Cyanothiazolidin-3-yl)-2-oxoethyl)-6-(3-(m-tolyl)azetidin-1-yl)quinoline-4-carboxamide] | 70 | 0.1 | 0.27 | – | – | 0.045 | 130 (≈ 61.3 µg/mL) | – | – | – | 24 | 150 | – | –
N#C[C@@H]1CSCN1C(=O)CNC(=O)c1ccnc2ccc(N3CC(F)(C4CC4)C3)cc12 [Example 31, (R)—N-(2-(4-Cyanothiazolidin-3-yl)-2-oxoethyl)-6-(3-cyclopropyl-3-fluoroazetidin-1-yl)quinoline-4-carboxamide] | 45 | 0.1 | 0.22 | 0.00024 | 9700000 | 0.031 | 180 (≈ 79.1 µg/mL) | – | – | – | 14 | 760 | – | –
CC1(F)CCN(c2ccc3nccc(C(=O)NCC(=O)N4CSC[C@H]4C#N)c3c2)CC1 [Example 34, (R)—N-(2-(4-Cyanothiazolidin-3-yl)-2-oxoethyl)-6-(4-fluoro-4-methyl-piperidin-1-yl)quinoline-4-carboxamide] | 38 | 0.22 | 0.27 | 0.000082 | 2200000 | 0.057 | 770 (≈ 340 µg/mL) | – | – | – | 33 | 430 | – | –
N#C[C@@H]1CSCN1C(=O)CNC(=O)c1ccnc2ccc(N3CCC(C(F)(F)F)CC3)cc12 [Example 39, (R)—N-(2-(4-Cyanothiazolidin-3-yl)-2-oxoethyl)-6-(4-(trifluoromethyl)-piperidin-1-yl)quinoline-4-carboxamide] | 120 | 0.1 | 0.28 | 0.00016 | 4900000 | 0.04 | 22 (≈ 10.5 µg/mL) | – | – | – | 31 | 500 | – | –
N#C[C@@H]1CSCN1C(=O)CNC(=O)c1ccnc2ccc(N3CCC4(CC4)C3)cc12 [Example 49, (R)—N-(2-(4-Cyanothiazolidin-3-yl)-2-oxoethyl)-6-(5-azaspiro[2.4]heptan-5-yl)quinoline-4-carboxamide] | – | 0.041 | 0.19 | 0.00017 | 8800000 | 0.02 | – | – | – | – | 48 | 340 | 58 | 13 (≈ 5.48 µg/mL)
